Marks after values point to notes of the source that are not given here.
Tests used:
[1] = system: fusarium graminearium; test: Test I: wheat head scab, preventive spray on wheat seedlings; conditions: 200 ppm
Description: (the causal agent of wheat head scab) and incubated in a saturated atmosphere at 20° C. for 72 h, and then moved to a growth chamber at 22° C. for 5 days, after which disease ratings were made.

[2] = system: Septoria nodorum; test: Test H: wheat glum blotch, preventive spray on wheat seedlings
Description: (the causal agent of wheat glum blotch) and incubated in a saturated atmosphere at 20° C. for 48 h, and then moved to a growth chamber at 22° C. for 5 days, after which disease ratings were made.

[3] = system: Plasmopara viticola; test: Test D: grape downy mildew, spray after inoculation of grape seedlings; type: in vivo
Description: Upon removal, disease ratings were made. […] A dash (-) indicates no test results.

[4] = system: Sclerotinia sclerotiorum; test: Test C: cucumber white mold, preventive spray on cucumber seedlings
[5] = system: Pythium aphanidermatum; test: Test A: bluegrass pythium blight, preventive spray on bluegrass seedlings
[6] = system: Botrytis cinerea; test: Test E: tomato botrytis, preventive spray on tomato seedlings
[7] = system: Puccinia recondita f. sp. tritici; test: Test K: wheat leaf rust, preventive spray on wheat seedlings
[8] = system: Phytophthora infestans; test: whole plant or invertebrate; type: in vivo
[9] = system: Colletotrichum orbiculare; test: Test B: cucumber Colletotrichum anthracnose, preventive spray on cucumber seedlings
[10] = system: Erysiphe graminis f. sp. tritici; test: Test L: wheat powdery mildew, preventive spray on wheat seedlings
[11] = system: Rhizoctonia oryzae; test: Test G: turf brown patch, preventive spray on creeping bent grass seedlings
Description: (the causal agent of turf brown patch) and incubated in a saturated atmosphere at 27° C. for 24 h, and then moved to a growth chamber at 27° C. for 5 days, after which disease ratings were made.

[12] = system: Septoria tritici; test: Test J: wheat leaf blotch, preventive spray on wheat seedlings; type: in vivo; conditions: 100 = 100% disease control, 0 = no control
Description: A dash (-) indicates no test results.

[13] = 40 ppm (marked *), 100 = 100% disease control, 0 = no control
[14] = 200 ppm, 100 = 100% disease control, 0 = no control

SMILES	Test I disease control rating [1] [%]	Test H disease control rating ([2]; 200 ppm) [%]	Test D disease control rating ([3]; 200 ppm) [%]	Test C disease control rating ([4]; 200 ppm) [%]	Test A disease control rating ([5]; 200 ppm) [%]	Test E disease control rating ([6]; 200 ppm) [%]	Test K disease control rating ([7]; 200 ppm) [%]	Test F disease control rating ([8]; 200 ppm) [%]	Test B disease control rating ([9]; 200 ppm) [%]	Test L disease control rating ([10]; 200 ppm) [%]	Test G disease control rating ([11]; 200 ppm) [%]	Test H disease control rating [2, 14] [%]	Test D disease control rating [3, 14] [%]	Test C disease control rating [4, 14] [%]	Test A disease control rating [5, 14] [%]	Test E disease control rating [6, 14] [%]	Test K disease control rating [7, 14] [%]	Test F disease control rating [8, 14] [%]	Test J disease control rating ([12]; 200 ppm) [%]	Test B disease control rating [9, 14] [%]	further results
CC(C)Cn1c(-c2cccc(Cl)c2Cl)c(Cl)nc(-n2cncn2)c1=O [compound 39]	0	89	0	0	0	99	67	0	0	0	0										
CC(C)Cn1c(-c2c(Cl)cccc2Cl)c(Cl)nc(-n2cncn2)c1=O [compound 40]	0	99	0	0	0	100	99	0	0	21	65										
CC(C)Cn1c(-c2cccc(Cl)c2Cl)c(Cl)nc(-n2cccn2)c1=O [compound 41]	0	100	8	98	0	100	83	0	68	0	47										
CC(C)Cn1c(-c2cccc(C#N)c2)c(Cl)nc(-n2cccn2)c1=O [compound 250]																					Test H disease control rating [2, 13]: 0* %; Test D disease control rating [3, 13]: 0* %; Test C disease control rating [4, 13]: 0* %; Test A disease control rating [5, 13]: 0* %; Test E disease control rating [6, 13]: 0* %; Test K disease control rating [7, 13]: 0* %; Test F disease control rating [8, 13]: 0* %; Test J disease control rating ([12]; 40 ppm (marked *)): 30* %; Test B disease control rating [9, 13]: 0* %; Test L disease control rating [10, 13]: 0* %; Test G disease control rating [11, 13]: 0* %
CC(C)Cn1c(-c2cccc3c2OCO3)c(Cl)nc(-n2cccn2)c1=O [compound 251]												82	0	0	0	99	17	0	97	0	Test L disease control rating [10, 14]: 0%; Test G disease control rating [11, 14]: 21%
CC(C)Cn1c(-c2ccc3c(c2)OC(F)(F)O3)c(Cl)nc(-n2cccn2)c1=O [compound 252]												0	0	0	0	0	0	0	53	0	Test L disease control rating [10, 14]: 0%; Test G disease control rating [11, 14]: 0%
CC(C)Cn1c(-c2cc3c(cc2Cl)OCO3)c(Cl)nc(-n2cccn2)c1=O [compound 253]												0	0	0	0	0	0	0	66	0	Test L disease control rating [10, 14]: 0%; Test G disease control rating [11, 14]: 0%
Cc1cc(C)c(-c2c(Cl)nc(-n3cccn3)c(=O)n2CC(C)C)c(C)c1 [compound 254]																					Test H disease control rating [2, 13]: 0* %; Test D disease control rating [3, 13]: 0* %; Test C disease control rating [4, 13]: 0* %; Test A disease control rating [5, 13]: 0* %; Test E disease control rating [6, 13]: 94* %; Test K disease control rating [7, 13]: 59* %; Test F disease control rating [8, 13]: 0* %; Test J disease control rating ([12]; 40 ppm (marked *)): 99* %; Test B disease control rating [9, 13]: 0* %; Test L disease control rating [10, 13]: 54* %; Test G disease control rating [11, 13]: 41* %
